{"source": "patent US11974551B2", "about": "“L-serine compositions, methods and uses for treating neurodegenerative diseases and disorders” (priority 2011, dated 2024)", "key": {"[1]": {"test_system": "SH-SY5Y cells", "assay": "Annexin V binding (apoptosis) by flow cytometry", "type": "cell-based, human", "conditions": "500 μM BMAA, co-incubation with CHX 2 μg/mL or L-serine 50 μM", "description": "Late-stage apoptosis or necrosis was measured by simultaneous staining with propidium iodide and Annexin V using the BD Pharmingen™ Annexin V—FITC apoptosis detection kit and flow cytometry performed as described previously (Dunlop, et al., Biochem J 435, 207-216 (2010))."}, "[2]": {"test_system": "Drosophila fruit flies", "assay": "Fruit fly feeding: misincorporation of BMAA into proteins by LC/MS/MS", "type": "in vivo, Drosophila melanogaster", "conditions": "media with 25 mM BMAA and 25 mM L-Serine vs 25 mM BMAA, three days of feeding", "description": "Thirty flies were from each treatment were weighed and sonicated (Fisher Scientific sonic dismembrator model 100; 2 watts for 30 secs) in 10% trichloroacetic acid (TCA 72 μg/μl). TCA extraction was completed in two steps 20 h at 4° C. using one half the TCA volume followed by centrifugation ([…] for 3 min, Labnet Spectrafuge™ 16M microcentrifuge) and removal of supernatant. This was followed by a second sonication and extraction, 5 hours at room temperature using an equal volume of TCA, followed by centrifugation and removal of supernatant. The supernatants were pooled (with the exception of 50 μl removed from the last extraction) and centrifuge filtered (0.22 μm Ultrafree®-MC, Millipore). The remaining protein pellet was transferred to a glass vial and hydrolyzed in 6 M HCl for 16 hours at 110° C. (58 μg/μl). […] Extracts were diluted and derivatized with 6-aminoquinolyl-N-hydroxysuccinimidyl carbamate (AQC) and analyzed by LC-MS/MS.\n6-Aminoquinolyl-N-hydroxysuccinimidyl carbamate derivates (AQC Waters AccQTag reagent, P/N WAT052880) were analyzed using a triple quadrupole instrument (Thermo Scientific Finnigan TSQ Quantum Ultra, San Jose, CA) after separation by a Waters Acquity-UHPLC system with a Binary Solvent Manager, Sample Manager and a Waters AccQTag Ultra column (part#186003837, 2.1×100 mm) at 55° C. […]"}}, "note": "“Also recorded” adds a separate entry of the source."}
{"smiles": "N[C@@H](CO)C(=O)O", "note": "[L-serine]", "values": [{"measurement": "effect on BMAA-induced Annexin V binding / apoptosis", "setting": "[1]", "result": "abrogated; also recorded: significantly reduced"}, {"measurement": "effect on amount of BMAA misincorporation into proteins", "setting": "[2]", "result": "reduces BMAA incorporation into proteins"}, {"measurement": "effect on amount of BMAA misincorporation into proteins", "setting": "[2]; listed as L-Serine", "result": "reduced by half"}]}
